According to US20240350503A1, “COMPOUNDS FOR TREATMENT OF VIRAL INFECTIONS BY NEUROTROPIC VIRUS” (priority 2021, published 2024):
Entries after “also recorded” stand apart in the source; their conditions may differ.

Test system: SARS-CoV-2
Format: cell-based, SARS-CoV-2 alpha variant

c1ccc(-c2ccc(CNc3nc(-c4ccccn4)nnc3-c3ccccc3)cc2)cc1 [ML228]
SARS-CoV-2 replication (virus N2 RNA level): strongly reduced; also recorded: significantly decreased
